Laboratory results: US9145354B2, “Pharmaceutical compounds” (priority 2011, dated 2015)
Structures can show the parent of a compound that is named as a salt. Where two headings read alike, the source gives them in different places.

Molecular target: full length NS3/4a (Hepatitis C virus genotype 1b (isolate BK) (HCV), UniProt P26663)
Assay: NS3 Protease Assay (Example A), FRET-based
Type: biochemical
Protocol: The HCV NS3 protease functions have been extensively studied and are considered as potential targets for antiviral therapy: see for example the many references listed in the introductory section of this application. Therefore, the activity of the compounds of the invention as anti-HCV agents was assessed using a full length HCV NS3 protease.
The protease activity of the full length NS3/4a was measured using a FRET-based assay utilizing a peptide substrate derived from the NS4A/B cleavage site (Anaspec) and labelled at one end with a quencher (QXL520) and at the other with a fluorophore (5-FAMsp). NS3/4a (produced in-house by literature methods) was incubated with test compounds and peptide substrate in 50 mM Tris pH8, 20 mM DTT, 1% CHAPS, 10% glycerol and 5% DMSO. The reaction was followed by monitoring the change in fluorescence on a Molecular Devices Gemini plate reader for 30 minutes at room temperature. Initial rates were calculated from the progress curves using SoftMax Pro (Molecular Devices). IC50 values were then calculated from replicate curves using Prism GraphPad software.

[1] = HCV NS3 protease assay, full length NS3/4a, read-out: Assay A IC50 (μM) average
[2] = read-out: IC50 against the protease activity of the full length NS3/4a
[3] = stated as IC50 less than 30 μM or at least 40% inhibition at a concentration of 100 μM, read-out: IC50 against the protease activity of the full length NS3/4a

Chain of full length NS3/4a (P26663 1027-1657): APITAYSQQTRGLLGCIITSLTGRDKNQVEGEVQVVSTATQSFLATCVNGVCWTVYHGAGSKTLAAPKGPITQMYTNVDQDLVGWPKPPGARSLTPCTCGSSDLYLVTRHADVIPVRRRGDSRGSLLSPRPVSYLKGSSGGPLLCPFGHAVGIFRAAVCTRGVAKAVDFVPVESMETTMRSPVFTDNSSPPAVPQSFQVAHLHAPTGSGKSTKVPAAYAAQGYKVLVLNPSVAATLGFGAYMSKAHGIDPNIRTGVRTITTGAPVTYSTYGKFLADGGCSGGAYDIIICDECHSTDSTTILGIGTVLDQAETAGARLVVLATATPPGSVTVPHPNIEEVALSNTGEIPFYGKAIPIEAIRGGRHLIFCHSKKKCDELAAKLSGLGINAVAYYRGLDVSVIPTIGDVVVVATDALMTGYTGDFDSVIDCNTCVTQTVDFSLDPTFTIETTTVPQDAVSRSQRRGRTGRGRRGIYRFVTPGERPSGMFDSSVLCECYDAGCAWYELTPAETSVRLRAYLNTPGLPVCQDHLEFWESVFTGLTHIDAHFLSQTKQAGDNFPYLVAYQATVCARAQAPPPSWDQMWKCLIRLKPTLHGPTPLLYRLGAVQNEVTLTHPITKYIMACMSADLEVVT

Structure (SMILES) | IC50 [1] | IC50 [2] | other results
CC[C@H](N)c1ccc(Cl)c(C(=O)c2cccnc2)c1F [Example 26, (1S)-1-{4-chloro-2-fluoro-3-[(pyridin-3-yl)carbonyl]phenyl}propan-1-amine] | 0.63 µM | < 1 µM | 
CC[C@@H](N[C@@H](C)CO)c1ccc(Cl)c(C(=O)c2cccnc2)c1F [Example 165, (2S)-2-{[(1R)-1-{4-chloro-2-fluoro-3-[(pyridin-3-yl)carbonyl]phenyl}-propyl]amino}-propan-1-ol] | 1.4 µM | 1 to 5 µM | 
N#Cc1ccc(C(=O)c2c(Cl)ccc([C@H](N)C3CC3)c2F)cc1 [Example 32, 4-({3-[(R)-amino(cyclopropyl)methyl]-6-chloro-2-fluorophenyl}carbonyl)benzonitrile] | 0.058 µM | < 1 µM | 
CC[C@@H](NC[C@@H](C)C(N)=O)c1ccc(Cl)c(C(=O)c2cccnc2)c1F.Cl [Example 174, 2R)-3-{[(1R)-1-{4-chloro-2-fluoro-3-[(pyridin-3-yl)carbonyl]phenyl}-propyl]amino}-2-methylpropanamide HCl (1:1] |  |  | Assay A % inhibition average: 47% @ 30 uM; IC50 [3]: < 30 µM
CC[C@H](NC(=O)C1=CCNC1)c1ccc(Cl)c(C(=O)c2cccnc2)c1F [Example 286, N-[(1S)-1-{4-chloro-2-fluoro-3-[(pyridin-3-yl)carbonyl]phenyl}propyl]-2,5-dihydro-1H-pyrrole-3-carboxamide] | 0.13 µM | < 1 µM | 
N[C@@H](c1ccc(Cl)c(C(=O)c2ccncc2)c1F)C1CC1 [Example 33, (R)-{4-chloro-2-fluoro-3-[(pyridin-4-yl)carbonyl]phenyl}(cyclopropyl)methanamine] | 0.71 µM | < 1 µM | 
CC[C@@H](N)c1ccc(Cl)c(C(=O)c2cncc(OC)c2)c1F [Example 17, (1R)-1-{4-chloro-2-fluoro-3-[(5-methoxypyridin-3-yl)carbonyl]phenyl}propan-1-amine] |  |  | inhibition at 100 µM (@ 100 uM): 65%
CC[C@H](N[C@@H](C)CC(=O)NCCN)c1ccc(Cl)c(C(=O)c2ccccc2)c1F [Example 89, (3S)-N-(2-aminoethyl)-3-{[(1S)-1-(3-benzoyl-4-chloro-2-fluorophenyl)propyl]-amino}butanamide] |  |  | inhibition at 0.03 µM (@ 0.03 uM): 54%
CC[C@@H](NCc1cnc[nH]1)c1ccc(Cl)c(C(=O)c2cccnc2)c1F [Example 288, [(1R)-1-{4-chloro-2-fluoro-3-[(pyridin-3-yl)carbonyl]phenyl}propyl](1H-imidazol-5-ylmethyl)amine] | 1.4 µM | 1 to 5 µM | 
C[C@H](CC(N)=O)N[C@@H](c1ccc(Cl)c(C(=O)c2ccc(CO)cc2)c1F)C1CC1 [Example 264, (3R)-3-{[(R)-(4-chloro-2-fluoro-3-{[4-(hydroxymethyl)phenyl]carbonyl}phenyl)(cyclopropyl)methyl]amino}butanamide] | 0.61 µM |  | 
CC[C@@H](N[C@H](C)CC(N)=O)c1ccc(Cl)c(C(=O)c2cc(C)on2)c1F [Example 111, (3R)-3-{[(1R)-1-{4-chloro-2-fluoro-3-[(5-methyl-1,2-oxazol-3-yl)carbonyl]-phenyl}-propyl]amino}-butanamide] | 3.1 µM | 1 to 5 µM | 
CC[C@@H](N)c1ccc(Cl)c(C(=O)c2nccs2)c1F [Example 20, (1R)-1-{4-chloro-2-fluoro-3-[(1,3-thiazol-2-yl)carbonyl]phenyl}propan-1-amine] | 0.82 µM | < 1 µM | 
[2H]C([2H])([2H])C([2H])([2H])[C@@H](N[C@H](C)CC(N)=O)c1ccc(Cl)c(C(=O)c2ccc3c(c2)OCC(=O)N3)c1F [Example 124, (3R)-3-{[(1R)-1-{4-chloro-2-fluoro-3-[(3-oxo-3,4-dihydro-2H-1,4-benzoxazin-7-yl)carbonyl]phenyl} (2,2,3,3,3-deutero)propyl]amino}-butanamide] | 1 µM | 1 to 5 µM | 
CCC(NC1(C(N)=O)CC1)c1ccc(Cl)c(C(=O)c2ccccc2)c1F (stereo not drawn) [Example 184, 1-[1-(3-Benzoyl-4-chloro-2-fluorophenyl)-propylamino]-cyclopropanecarboxylic acid amide.HCl] |  |  | inhibition at 10 µM: 22%
CC[C@@H](N)c1ccc(OC)c(C(=O)c2ccccc2)c1F [Example 40, (1R)-1-(3-benzoyl-2-fluoro-4-methoxyphenyl)propan-1-amine] | 0.84 µM | < 1 µM | 
CC[C@@H](N[C@H](C)CC(N)=O)c1ccc(Cl)c(C(=O)c2ccc(NC)nc2)c1F [Example 208, (3R)-3-{[(1R)-1-(4-chloro-2-fluoro-3-{[6-(methylamino)pyridin-3-yl]carbonyl}phenyl)propyl]amino}butanamide] | 3.1 µM | 1 to 5 µM | 

Structure (SMILES) | IC50 [1] | IC50 [2] | other results
C[C@H](CC(N)=O)N[C@@H](c1ccc(Cl)c(C(=O)c2ccccc2)c1F)C1CC1 [Example 112, (3R)-3-{[(R)-(3-benzoyl-4-chloro-2-fluorophenyl)(cyclopropyl)-methyl]amino}butanamide] | 0.62 µM |  | 
CC[C@@H](N[C@@H](C)CC(N)=O)c1ccc(Cl)c(C(=O)c2ccnc(N)c2)c1F [Example 205, (3S)-3-{[(1R)-1-{3-[(2-aminopyridin-4-yl)carbonyl]-4-chloro-2-fluorophenyl}propyl]amino} butanamide] | 0.19 µM |  | 
CC[C@@H](N)c1ccc(Cl)c(C(=O)c2cn[nH]c2)c1F [Example 55, (1R)-1-{4-chloro-2-fluoro-3-[(1H-pyrazol-4-yl)carbonyl]phenyl}propan-1-amine] | 4.4 µM | 1 to 5 µM | 
CC(C)C[C@@H](N[C@H](C)CC(N)=O)c1ccc(Cl)c(C(=O)c2ccc(N)nc2)c1F [Example 272, (3R)-3-{[(1R)-1-{3-[(6-aminopyridin-3-yl)carbonyl]-4-chloro-2-fluorophenyl}-3-methylbutyl]amino} butanamide] |  |  | inhibition at 3 µM (@ 3 uM): 43%; IC50 [3]: < 30 µM
CC[C@@H](N)c1ccc(Cl)c(C(=O)c2ccc3c(c2)OCC(=O)N3)c1F [Example 60, 7-({3-[(1R)-1-Aminopropyl]-6-chloro-2-fluorophenyl}-carbonyl)-3,4-dihydro-2H-1,4-benzoxazin-3-one] | 0.55 µM | < 1 µM | 
CC[C@@H](N[C@H](C)CC(N)=O)c1ccc(Cl)c(C(=O)c2ccc(-n3cccn3)nc2)c1F [Example 140, (3R)-3-{[(1R)-1-(4-chloro-2-fluoro-3-{[6-(1H-pyrazol-1-yl)pyridin-3-yl]carbonyl}-phenyl)-propyl]amino}-butanamide] | 3.9 µM | 1 to 5 µM | 
CC[C@H](NCCCO)c1ccc(Cl)c(C(=O)c2ccccc2)c1F [Example 182, 3-{[(1S)-1-(3-benzoyl-4-chloro-2-fluorophenyl)propyl]-amino}propan-1-ol] | 0.038 µM |  | 
CC[C@@H](N[C@@H](C)CC(N)=O)c1ccc(Cl)c(C(=O)c2cnc(NC)cn2)c1F [Example 192, (3S)-3-{[(1R)-1-(4-chloro-2-fluoro-3-{[5-(methylamino)-pyrazin-2-yl]carbonyl}-phenyl)propyl]-amino}butanamide] | 0.63 µM | < 1 µM | 
CC[C@@H](N)c1ccc(Cl)c(C(=O)c2cncc(N)c2)c1F [Example 45, 5-({3-[(1R)-1-aminopropyl]-6-chloro-2-fluorophenyl}carbonyl)pyridin-3-amine] |  |  | inhibition at 10 µM: 50%; IC50 [3]: < 30 µM
CC[C@@H](N[C@H](C)CC(N)=O)c1ccc(OC)c(C(=O)c2ccccc2)c1F [Example 153, (3R)-3-{[(1R)-1-(3-benzoyl-2-fluoro-4-methoxyphenyl)propyl]amino}butanamide] | 0.49 µM |  | 
Cc1cc(C(=O)c2c(Cl)ccc([C@H](N[C@H](C)CC(N)=O)C3CC3)c2F)ccc1N [Example 203, (3R)-3-{[(R)-{3-[(4-amino-3-methylphenyl)carbonyl]-4-chloro-2-fluorophenyl}(cyclopropyl)methyl]amino}butanamide] | 0.27 µM |  | 
CC[C@@H](NC1CCOCC1)c1ccc(Cl)c(C(=O)c2cccnc2)c1F [Example 283, N-[(1R)-1-{4-chloro-2-fluoro-3-[(pyridin-3-yl)carbonyl]phenyl}propyl]oxan-4-amine] |  |  | IC50 [3]: < 30 µM
Nc1ccc(C(=O)c2c(Cl)ccc([C@H](N)C3CC3)c2F)cn1 [Example 47, 5-({3-[(R)-amino(cyclopropyl)methyl]-6-chloro-2-fluorophenyl}carbonyl)pyridin-2-amine] | 0.18 µM | < 1 µM | 
N[C@@H](c1ccc(Cl)c(C(=O)c2cccnc2)c1F)C1CC1 [Example 28, (R)-{4-chloro-2-fluoro-3-[(pyridin-3-yl)carbonyl]phenyl}(cyclopropyl)methanamine] | 1.5 µM | 1 to 5 µM | 
CC[C@@H](N[C@H](C)C1(C(N)=O)CC1)c1ccc(Cl)c(C(=O)c2cccnc2)c1F [Example 131, 1-[(1R)-1-{[(1R)-1-{4-chloro-2-fluoro-3-[(pyridin-3-yl)carbonyl]phenyl}-propyl]-amino}ethyl]-cyclopropane-1-carboxamide] | 7.9 µM |  | IC50 [3]: < 30 µM
CC[C@@H](N[C@H](C)C(N)=O)c1ccc(Cl)c(C(=O)c2cccnc2)c1F [Example 169, (2R)-2-{[(1R)-1-{4-chloro-2-fluoro-3-[(pyridin-3-yl)carbonyl]phenyI}-propyl]amino}propanamide] |  |  | Assay A % inhibition average (@ 100 uM): 53% @ 100 uM; IC50 [3]: < 30 µM
